Source: ChEMBL document CHEMBL5543109, “Novel β-Hairpin Antimicrobial Peptide Containing the β-Turn Sequence of -NG- and the Tryptophan Zippers Facilitate Self-Assembly into Nanofibers, Exhibiting Excellent Antimicrobial Performance” (J Med Chem, 2024)
Values after ≈ are worked out from the molar mass of the structure shown. Active and inactive are the calls of the source. The calls are words filed in the database; no cut-off is given here.

Columns and labels:
[1] = system: Staphylococcus aureus; assay: Bactericidal activity against Staphylococcus aureus ATCC 25923 incubated for 18 hrs by broth microdilution method; assay type: functional
[2] = system: Pseudomonas aeruginosa; assay: Antibacterial activity against Pseudomonas aeruginosa ATCC 27853 incubated for 18 hrs by broth microdilution method; assay type: functional
[3] = system: Escherichia coli; assay: Antibacterial activity against Escherichia coli ATCC 25922 incubated for 18 hrs by broth microdilution method; assay type: functional
[4] = system: Erythrocyte; assay: Hemolytic activity in mouse erythrocytes assessed as concentration required to cause 10% hemolysis incubated for 1 hr; assay type: toxicity, cell-based
[5] = system: Staphylococcus aureus; assay: Antibacterial activity against Staphylococcus aureus ATCC 25923 incubated for 18 hrs by broth microdilution method; assay type: functional
[6] = Self-assembly property of compound in water assessed as beta-sheet content; assay type: physicochemical
[7] = system: Staphylococcus aureus; assay: Antibacterial activity against Staphylococcus aureus at 2 times MIC preincubated for 1 hr with trypsin followed by enzyme inactivation and bacterial addition and measured after 18 hrs; assay type: functional; settings: time 19 hrs
[8] = system: Staphylococcus epidermidis; assay: Antibacterial activity against Staphylococcus epidermidis ATCC 12228 incubated for 18 hrs by broth microdilution method; assay type: functional
[9] = system: Staphylococcus epidermidis; assay: Bactericidal activity against Staphylococcus epidermidis ATCC 12228 incubated for 18 hrs by broth microdilution method; assay type: functional
[10] = system: Klebsiella pneumoniae; assay: Bactericidal activity against Klebsiella pneumoniae ATCC 700603 incubated for 18 hrs by broth microdilution method; assay type: functional
[11] = system: Bacillus subtilis; assay: Bactericidal activity against Bacillus subtilis ATCC 23857 incubated for 18 hrs by broth microdilution method; assay type: functional
[12] = system: Pseudomonas aeruginosa; assay: Bactericidal activity against Pseudomonas aeruginosa ATCC 27853 incubated for 18 hrs by broth microdilution method; assay type: functional
[13] = Retention time of the compound; assay type: physicochemical
[14] = system: Escherichia coli; assay: Bactericidal activity against Escherichia coli ATCC 25922 incubated for 18 hrs by broth microdilution method; assay type: functional
[15] = Self-assembly property of compound in PBS assessed as beta-sheet content; assay type: physicochemical; settings: buffer
[16] = system: Bacillus subtilis; assay: Antibacterial activity against Bacillus subtilis ATCC 23857 incubated for 18 hrs by broth microdilution method; assay type: functional
[17] = Self-assembly property of compound in PBS assessed as beta-sheet nanofibers formation incubated for 1 hr by Thioflavin T based fluorescence spectrophotometer analysis; assay type: physicochemical; settings: buffer, dose 0.5-1.5 µM
[18] = Self-assembly property of compound in 50% TFE assessed as beta-sheet content; assay type: physicochemical
[19] = system: Klebsiella pneumoniae; assay: Antibacterial activity against Klebsiella pneumoniae ATCC 700603 incubated for 18 hrs by broth microdilution method; assay type: functional
[20] = system: Staphylococcus aureus; assay: Antibacterial activity against Staphylococcus aureus at 2 times MIC preincubated for 1 hr with chymotrypsin followed by enzyme inactivation and bacterial addition and measured after 18 hrs; assay type: functional; settings: time 19 hrs
[21] = system: Cell membrane; assay: Induction of cell membrane disruption in Staphylococcus aureus assessed as PI uptake at 4 times MIC incubated for 2 hrs by PI staining based flow cytometry analysis (reference value: 15.9%); assay type: cell membranes
[22] = system: Pseudomonas aeruginosa; assay: Induction of morphological change in Pseudomonas aeruginosa assessed as bacterial collapse at 2 times MIC incubated for 30 mins by SEM analysis; assay type: functional, organism-based
[23] = system: Escherichia coli; assay: Antibacterial activity against rifampicin resistant Escherichia coli incubated for 18 hrs by broth microdilution method; assay type: functional
[24] = system: Staphylococcus aureus; assay: Antibacterial activity against kanamycin resistant Staphylococcus aureus incubated for 18 hrs by broth microdilution method; assay type: functional
[25] = system: Escherichia coli; assay: Antibacterial activity against Escherichia coli incubated for 18 hrs by broth microdilution method; assay type: functional
[26] = system: Staphylococcus aureus; assay: Antibacterial activity against rifampicin resistant Staphylococcus aureus incubated for 18 hrs by broth microdilution method; assay type: functional
[27] = system: Escherichia coli; assay: Antibacterial activity against Escherichia coli at 2 times MIC preincubated with 256 ug/ml LPS for 1 hr followed by bacterial addition and measured after 5 hrs; assay type: functional, organism-based; settings: time 6.0 hrs
[28] = system: Cell membrane; assay: Induction of cell membrane disruption in Escherichia coli assessed as PI uptake at 2 times MIC incubated for 2 hrs by PI staining based flow cytometry analysis (reference value: 11.9%); assay type: cell membranes
[29] = system: Staphylococcus aureus; assay: Antibacterial activity against methicillin resistant Staphylococcus aureus 75 incubated for 18 hrs by broth microdilution method; assay type: functional
[30] = system: Staphylococcus aureus; assay: Induction of morphological distortion in Staphylococcus aureus assessed as bacterial collapse at 2 times MIC incubated for 30 mins by SEM analysis; assay type: functional, organism-based
[31] = system: Staphylococcus aureus; assay: Antibacterial activity against Staphylococcus aureus incubated for 18 hrs by broth microdilution method; assay type: functional
[32] = system: Staphylococcus aureus; assay: Antibacterial activity against methicillin resistant Staphylococcus aureus 113 incubated for 18 hrs by broth microdilution method; assay type: functional
[33] = system: Staphylococcus aureus; assay: Induction of morphological change in Staphylococcus aureus assessed as bacterial lysis at 2 times MIC incubated for 30 mins by SEM analysis; assay type: functional, organism-based
[34] = system: Pseudomonas aeruginosa; assay: Induction of morphological change in Pseudomonas aeruginosa assessed as bacterial lysis at 2 times MIC incubated for 30 mins by SEM analysis; assay type: functional, organism-based
[35] = system: Cell membrane; assay: Induction of cell membrane disruption in Staphylococcus aureus assessed as PI uptake at 2 to 4 times MIC incubated for 2 hrs by PI staining based confocal laser scanning microscopy; assay type: cell membranes
[36] = system: Cell membrane; assay: Induction of cell membrane disruption in Escherichia coli assessed as PI uptake at 4 times MIC incubated for 2 hrs by PI staining based flow cytometry analysis (reference value: 11.9%); assay type: cell membranes
[37] = system: Escherichia coli; assay: Antibacterial activity against kanamycin resistant Escherichia coli incubated for 18 hrs by broth microdilution method; assay type: functional
[38] = system: Cell membrane; assay: Induction of cell membrane disruption in Staphylococcus aureus assessed as PI uptake at 2 times MIC incubated for 2 hrs by PI staining based flow cytometry analysis (reference value: 15.9%); assay type: cell membranes
[39] = system: Staphylococcus aureus; assay: Antibacterial activity against Staphylococcus aureus S125 incubated for 18 hrs by broth microdilution method; assay type: functional
[40] = system: Staphylococcus aureus; assay: Induction of morphological change in Staphylococcus aureus assessed as bacterial collapse at 2 times MIC incubated for 30 mins by SEM analysis; assay type: functional, organism-based
[41] = system: Pseudomonas aeruginosa; assay: Induction of morphological distortion in Pseudomonas aeruginosa assessed as bacterial collapse at 2 times MIC incubated for 30 mins by SEM analysis; assay type: functional, organism-based
[42] = system: Staphylococcus aureus; assay: Antibacterial activity against Staphylococcus aureus S794 incubated for 18 hrs by broth microdilution method; assay type: functional
[43] = system: Cell membrane; assay: Induction of cell membrane disruption in Escherichia coli assessed as PI uptake at 2 to 4 times MIC incubated for 2 hrs by PI staining based confocal laser scanning microscopy; assay type: cell membranes
[44] = system: Pseudomonas aeruginosa; assay: Drug resistance against Pseudomonas aeruginosa assessed as fold increase in MIC after 40 consecutive days of passages by sequential passaging method; assay type: functional; settings: time 18.0 hrs
[45] = system: Staphylococcus aureus; assay: Antibacterial activity against methicillin resistant Staphylococcus aureus incubated for 18 hrs by broth microdilution method; assay type: functional

Compound: NCCCC[C@@H](NC(=O)[C@H](N)Cc1c[nH]c2ccccc12)C(=O)N[C@H](Cc1c[nH]c2ccccc12)C(=O)N[C@H](CCCCN)C(=O)N[C@H](Cc1c[nH]c2ccccc12)C(=O)N1CCC[C@H]1C(=O)NCC(=O)N[C@H](Cc1c[nH]c2ccccc12)C(=O)N[C@H](CCCCN)C(=O)N[C@H](Cc1c[nH]c2ccccc12)C(=O)N[C@H](CCCCN)C(=O)N[C@H](Cc1c[nH]c2ccccc12)C(N)=O
- MBC [1]: 8 µM (≈ 14.4 µg/mL)
- MIC [2]: 8 µM (≈ 14.4 µg/mL)
- MIC [3]: 8 µM (≈ 14.4 µg/mL)
- MHC [4]: 46 µM
- MIC [5]: 4 µM (≈ 7.2 µg/mL)
- Activity [6]: 63.8%
- Activity [7]: 100%
- MIC [8]: 4 µM (≈ 7.2 µg/mL)
- MBC [9]: 4 µM (≈ 7.2 µg/mL)
- MBC [10]: 8 µM (≈ 14.4 µg/mL)
- MBC [11]: 8 µM (≈ 14.4 µg/mL)
- MBC [12]: 32 µM (≈ 57.6 µg/mL)
- Retention_time [13]: 14.321 min
- MBC [14]: 8 µM (≈ 14.4 µg/mL)
- Activity [15]: 63%
- MIC [16]: 2 µM (≈ 3.6 µg/mL)
- Activity [17]: Not Active
- Activity [18]: 30.1%
- MIC [19]: 8 µM (≈ 14.4 µg/mL)
- Activity [20]: 100%

Compound: POLYMYXIN B
- Activity [21]: 38%
- Activity [22]: Active
- MBC [1]: 32 µM
- MIC [2]: 1 µM
- MIC [3]: 2 µM
- MIC [23]: 2000 nM
- MIC [24]: 8 µM
- MIC [25]: 2000 nM
- MIC [26]: 2000 nM
- Activity [27]: inactive
- Activity [28]: 42.6%
- MIC [29]: 16 µM
- Activity [30]: Active
- MIC [31]: 8 µM
- MIC [5]: 8 µM
- MIC [32]: 8 µM
- Activity [33]: Active
- Activity [34]: Active
- MIC [8]: 8 µM
- MBC [9]: 16 µM
- Activity [35]: inactive
- MBC [10]: 2 µM
- Activity [36]: 45.4%
- MIC [37]: 16 µM
- Activity [38]: 47.5%
- MIC [39]: 8 µM
- Activity [40]: Active
- MBC [11]: 8 µM
- MBC [12]: 1 µM
- MBC [14]: 2 µM
- Activity [41]: Active
- MIC [16]: 4 µM
- MIC [19]: 2 µM
- MIC [42]: 8 µM
- Activity [43]: inactive
- fold change (FC) [44]: 8
- MIC [45]: 16 µM
